Measurements as given in ChEMBL document CHEMBL1671627, “Increasing trends in antimicrobial resistance among clinically important anaerobes and Bacteroides fragilis isolates causing nosocomial infections: emerging resistance to carbapenems” (2008).

Tests used:
Assay type in all cases: functional
Clostridium tertium = experiment: Antibacterial activity against beta-lactamase producing Clostridium tertium by CLSI agar dilution method
Clostridium septicum = experiment: Antibacterial activity against beta-lactamase producing Clostridium septicum by CLSI agar dilution method
Clostridium perfringens = experiment: microbe, parasite or virus in culture
Bacteroides fragilis = experiment: Antibacterial activity against Bacteroides fragilis by CLSI agar dilution method
Fusobacterium varium = experiment: Antibacterial activity against Fusobacterium varium by CLSI agar dilution method
[1] = system: Bacteroides thetaiotaomicron; experiment: Antibacterial activity against beta-lactamase producing Bacteroides thetaiotaomicron by CLSI agar dilution method
[2] = system: Clostridium paraputrificum; experiment: Antibacterial activity against beta-lactamase producing Clostridium paraputrificum by CLSI agar dilution method
Veillonella parvula = experiment: Antibacterial activity against Veillonella parvula by CLSI agar dilution method
Fusobacterium nucleatum = experiment: Antibacterial activity against Fusobacterium nucleatum by CLSI agar dilution method
[3] = system: Prevotella melaninogenica; experiment: Antibacterial activity against Prevotella melaninogenica by CLSI agar dilution method
[4] = system: Fusobacterium necrophorum; experiment: Antibacterial activity against Fusobacterium necrophorum by CLSI agar dilution method
Prevotella intermedia = experiment: Antibacterial activity against Prevotella intermedia by CLSI agar dilution method
Bacteroides caccae = experiment: Antibacterial activity against beta-lactamase producing Bacteroides caccae by CLSI agar dilution method
Fusobacterium mortiferum = experiment: Antibacterial activity against Fusobacterium mortiferum by CLSI agar dilution method
Prevotella buccae = experiment: Antibacterial activity against Prevotella buccae by CLSI agar dilution method; conditions: Segatella buccae
Phocaeicola vulgatus = experiment: Antibacterial activity against beta-lactamase producing Bacteroides vulgatus by CLSI agar dilution method
[5] = system: Peptoniphilus asaccharolyticus; experiment: Antibacterial activity against beta-lactamase producing Peptoniphilus asaccharolyticus by CLSI agar dilution method
Bacteroides uniformis = experiment: Antibacterial activity against beta-lactamase producing Bacteroides uniformis by CLSI agar dilution method
Parvimonas micra = experiment: Antibacterial activity against beta-lactamase producing Micromonas micros by CLSI agar dilution method
Prevotella bivia = experiment: Antibacterial activity against Prevotella bivia by CLSI agar dilution method
Finegoldia magna = experiment: Antibacterial activity against beta-lactamase producing Finegoldia magna by CLSI agar dilution method
[6] = system: Peptostreptococcus anaerobius; experiment: Antibacterial activity against beta-lactamase producing Peptostreptococcus anaerobius by CLSI agar dilution method

`C[C@H]1COc2c(N3CCN(C)CC3)c(F)cc3c(=O)c(C(=O)O)cn1c23.C[C@H]1COc2c(N3CCN(C)CC3)c(F)cc3c(=O)c(C(=O)O)cn1c23.O` [LEVOFLOXACIN] was tested, and the MIC50 (Clostridium tertium) was 0.5 µg/mL, the MIC90 (Clostridium tertium) was 4 µg/mL and the MIC50 (Clostridium septicum) was 0.5 µg/mL. The MIC90 (Clostridium septicum) was 4 µg/mL, the MIC90 (Clostridium perfringens) was 4 µg/mL and the MIC50 (Bacteroides fragilis) was 2 µg/mL. For the same compound, the MIC90 (Bacteroides fragilis) was 8 µg/mL, the MIC50 (Fusobacterium varium) was 2 µg/mL and the MIC90 (Fusobacterium varium) was 4 µg/mL. The MIC50 [1] was 4 µg/mL, the MIC90 [1] was 8 µg/mL and the MIC50 [2] was 0.5 µg/mL. The MIC90 [2] was 4 µg/mL, the MIC (Veillonella parvula) was 0.06 µg/mL and the MIC50 (Fusobacterium nucleatum) was 2 µg/mL. For the same compound, the MIC90 (Fusobacterium nucleatum) was 4 µg/mL, the MIC50 [3] was 1 µg/mL and the MIC90 [3] was 16 µg/mL. For the same compound, the MIC50 [4] was 2 µg/mL, the MIC90 [4] was 4 µg/mL and the MIC50 (Prevotella intermedia) was 1 µg/mL. It also gave an MIC90 (Prevotella intermedia) of 16 µg/mL, an MIC50 (Bacteroides caccae) of 2 µg/mL and an MIC90 (Bacteroides caccae) of 8 µg/mL. For the same compound, the MIC50 (Fusobacterium mortiferum) was 2 µg/mL, the MIC90 (Fusobacterium mortiferum) was 4 µg/mL and the MIC50 (Prevotella buccae) was 1 µg/mL. For the same compound, the MIC90 (Prevotella buccae) was 16 µg/mL, the MIC50 (Phocaeicola vulgatus) was 2 µg/mL and the MIC90 (Phocaeicola vulgatus) was 8 µg/mL. The MIC50 [5] was 0.5 µg/mL, the MIC90 [5] was 32 µg/mL and the MIC50 (Bacteroides uniformis) was 2 µg/mL. For the same compound, the MIC90 (Bacteroides uniformis) was 8 µg/mL, the MIC50 (Parvimonas micra) was 0.5 µg/mL and the MIC90 (Parvimonas micra) was 32 µg/mL. For the same compound, the MIC50 (Prevotella bivia) was 1 µg/mL, the MIC90 (Prevotella bivia) was 16 µg/mL and the MIC50 (Finegoldia magna) was 0.5 µg/mL. The MIC90 (Finegoldia magna) was 32 µg/mL, the MIC50 [6] was 0.5 µg/mL and the MIC90 [6] was 32 µg/mL.
